According to US6395771B1, “Paclitaxel derivatives for the treatment of cancer” (Dabur Research Foundation, priority 2000, dated 2002):

What was measured:
[1] = system: breast cancer cells (HBL100); assay: MTT cytotoxicity assay, breast cancer cells; assay type: cell-based; design: key: —: Not active; =PT: Activity equivalent to Paclitaxel; <PT: Activity less than Paclitaxel; conditions: 24 to 96 hours, potency over paclitaxel
Protocol: (§1) In vitro cytotoxic activity of novel paclitaxel derivatives was determined by performing the MTT cytotoxicity assay (Mosmann T., J Immunological Methods, 65:55; 1983). Briefly, the cultured tumor cells were separately seeded in a 96-well culture plate and co-incubated with paclitaxel or its derivatives dissolved in methanol, dimethyl formamide, dimethyl sulfoxide or isopropyl alcohol with relevant controls at 37° C. in a CO2 incubator. After 24 to 96 hours, the assay was terminated and percent cyotoxicities calculated.

lung cancer cells (L132) = assay: MTT cytotoxicity assay, lung cancer cells; assay type: cell-based; design: key: —: Not active; =PT: Activity equivalent to Paclitaxel; <PT: Activity less than Paclitaxel; conditions: 24 to 96 hours, potency over paclitaxel
Protocol: as §1

[2] = system: ovarian cancer cells (PA-1); assay: MTT cytotoxicity assay, ovarian cancer cells; assay type: cell-based; design: key: —: Not active; =PT: Activity equivalent to Paclitaxel; <PT: Activity less than Paclitaxel; conditions: PA-1 ovarian cancer cells, 24 to 96 hours, potency over paclitaxel
Protocol: as §1

[3] = system: cervical cancer cells (SiHa); assay: MTT cytotoxicity assay, cervical cancer cells; assay type: cell-based; design: key: —: Not active; =PT: Activity equivalent to Paclitaxel; <PT: Activity less than Paclitaxel; conditions: 24 to 96 hours, potency over paclitaxel
Protocol: as §1

leukemia cells (MOLT-4) = assay: MTT cytotoxicity assay, leukemia cells; assay type: cell-based; design: key: —: Not active; =PT: Activity equivalent to Paclitaxel; <PT: Activity less than Paclitaxel; conditions: MOLT-4 leukemia cells, 24 to 96 hours, potency over paclitaxel
Protocol: as §1

mice = conditions: cited from earlier work

Compound: CC(=O)OC1C(=O)C2(C)C(O)CC3OCC3(OC(C)=O)C2C(OC(=O)c2ccccc2)C2(O)CC(OC(=O)C(OC(=O)CNC(=O)CNC(=O)OC(C)(C)C)C(NC(=O)c3ccccc3)c3ccccc3)C(C)=C1C2(C)C (stereo not drawn) [AV-4S]
- Potency with respect to paclitaxel, HBL100 [1]: 3.3
- Potency with respect to paclitaxel, L132 (lung cancer cells (L132)): 56.3
- Potency with respect to paclitaxel, PA-1 [2]: 9.5
- Potency with respect to paclitaxel, SiHa [3]: —
- Potency with respect to paclitaxel, MOLT-4 (leukemia cells (MOLT-4)): 13.2

Compound: CC(=O)OC1C(=O)C2(C)C(O)CC3OCC3(OC(C)=O)C2C(OC(=O)c2ccccc2)C2(O)CC(OC(=O)C(OC(=O)CC(C)(C)C(=O)O)C(NC(=O)c3ccccc3)c3ccccc3)C(C)=C1C2(C)C (stereo not drawn) [AV-82B]
- Potency with respect to paclitaxel, HBL100 [1]: >170
- Potency with respect to paclitaxel, L132 (lung cancer cells (L132)): —
- Potency with respect to paclitaxel, PA-1 [2]: —
- Potency with respect to paclitaxel, SiHa [3]: >25.0
- Potency with respect to paclitaxel, MOLT-4 (leukemia cells (MOLT-4)): —

Compound: CC(=O)OC1C(=O)C2(C)C(O)CC3OCC3(OC(C)=O)C2C(OC(=O)c2ccccc2)C2(O)CC(OC(=O)C(OC(=O)c3cccc(C(F)(F)F)c3)C(NC(=O)c3ccccc3)c3ccccc3)C(C)=C1C2(C)C (stereo not drawn) [AV-86B]
- Potency with respect to paclitaxel, HBL100 [1]: <PT
- Potency with respect to paclitaxel, PA-1 [2]: —
- Potency with respect to paclitaxel, SiHa [3]: 2.5
- Potency with respect to paclitaxel, MOLT-4 (leukemia cells (MOLT-4)): —

Compound: CC(=O)OC1C(=O)C2(C)C(O)CC3OCC3(OC(C)=O)C2C(OC(=O)c2ccccc2)C2(O)CC(OC(=O)C(OC(=O)c3ccc(F)cc3F)C(NC(=O)c3ccccc3)c3ccccc3)C(C)=C1C2(C)C (stereo not drawn) [AV-103S]
- Potency with respect to paclitaxel, L132 (lung cancer cells (L132)): —
- Potency with respect to paclitaxel, PA-1 [2]: —
- Potency with respect to paclitaxel, SiHa [3]: 1.4
- Potency with respect to paclitaxel, MOLT-4 (leukemia cells (MOLT-4)): —

Compound: CC(=O)OC1C(=O)C2(C)C(O)CC3OCC3(OC(C)=O)C2C(OC(=O)c2ccccc2)C2(O)CC(OC(=O)C(OC(=O)c3cccc(F)c3F)C(NC(=O)c3ccccc3)c3ccccc3)C(C)=C1C2(C)C (stereo not drawn) [AV-105S]
- Potency with respect to paclitaxel, HBL100 [1]: 3.8
- Potency with respect to paclitaxel, L132 (lung cancer cells (L132)): —
- Potency with respect to paclitaxel, PA-1 [2]: —
- Potency with respect to paclitaxel, SiHa [3]: 1.4
- Potency with respect to paclitaxel, MOLT-4 (leukemia cells (MOLT-4)): —

Compound: CC(=O)OC1C(=O)C2(C)C(O)CC3OCC3(OC(C)=O)C2C(OC(=O)c2ccccc2)C2(O)CC(OC(=O)C(OC(=O)C(OC(C)=O)c3ccccc3)C(NC(=O)c3ccccc3)c3ccccc3)C(C)=C1C2(C)C (stereo not drawn) [AV-125S]
- Potency with respect to paclitaxel, HBL100 [1]: —
- Potency with respect to paclitaxel, L132 (lung cancer cells (L132)): —
- Potency with respect to paclitaxel, PA-1 [2]: =PT
- Potency with respect to paclitaxel, SiHa [3]: —
- Potency with respect to paclitaxel, MOLT-4 (leukemia cells (MOLT-4)): —

Compound: CC(=O)OC(C)C(=O)OC1CC2OCC2(OC(C)=O)C2C(OC(=O)c3ccccc3)C3(O)CC(OC(=O)C(OC(=O)OCC(Cl)(Cl)Cl)C(NC(=O)c4ccccc4)c4ccccc4)C(C)=C(C(OC(C)=O)C(=O)C12C)C3(C)C (stereo not drawn) [AV-126S]
- Potency with respect to paclitaxel, HBL100 [1]: —
- Potency with respect to paclitaxel, L132 (lung cancer cells (L132)): —
- Potency with respect to paclitaxel, PA-1 [2]: =PT
- Potency with respect to paclitaxel, SiHa [3]: —
- Potency with respect to paclitaxel, MOLT-4 (leukemia cells (MOLT-4)): —

Compound: CC(=O)CC(=O)OC(C(=O)OC1CC2(O)C(OC(=O)c3ccccc3)C3C4(OC(C)=O)COC4CC(O)C3(C)C(=O)C(OC(C)=O)C(=C1C)C2(C)C)C(NC(=O)c1ccccc1)c1ccccc1 (stereo not drawn) [AV-147A]
- Potency with respect to paclitaxel, HBL100 [1]: —
- Potency with respect to paclitaxel, L132 (lung cancer cells (L132)): —
- Potency with respect to paclitaxel, PA-1 [2]: =PT
- Potency with respect to paclitaxel, SiHa [3]: —
- Potency with respect to paclitaxel, MOLT-4 (leukemia cells (MOLT-4)): —

Compound: CC(=O)OC1C(=O)C2(C)C(O)CC3OCC3(OC(C)=O)C2C(OC(=O)c2ccccc2)C2(O)CC(OC(=O)C(OC(=O)CSc3ccccc3)C(NC(=O)c3ccccc3)c3ccccc3)C(C)=C1C2(C)C (stereo not drawn) [AV-150S]
- Potency with respect to paclitaxel, HBL100 [1]: —
- Potency with respect to paclitaxel, L132 (lung cancer cells (L132)): —
- Potency with respect to paclitaxel, PA-1 [2]: =PT
- Potency with respect to paclitaxel, SiHa [3]: —
- Potency with respect to paclitaxel, MOLT-4 (leukemia cells (MOLT-4)): —

Compound: CC(=O)O[C@H]1C(=O)[C@@]2(C)[C@H]([C@H](OC(=O)c3ccccc3)[C@]3(O)C[C@H](OC(=O)[C@H](O)[C@@H](NC(=O)c4ccccc4)c4ccccc4)C(C)=C1C3(C)C)[C@]1(OC(C)=O)CO[C@@H]1C[C@@H]2O [paclitaxel, Paclitaxel]
- toxic dose (mice; administered in the Cremophor vehicle): > 30 mg/kg
- Maximum Tolerated Dose (MTD) (mice; mice, ip administration): 50 mg/kg
